# Data taken from patent publication US20220145343A1 (priority 2019, published 2022).
# Like-named read-outs stand apart in the source and are kept apart here.
# B1: NmSiaDW: recombinant C-terminal His-tagged N. meningitidis serogroup W capsular polysaccharide synthase, SEQ ID NO:2 (protein)
# chain: MAVIIFVNGIRAVNGLVKSSINTANAFAEEGLDVHLINFVGNITGAEHLYPPFHLHPNVKTSSIIDLFNDIPENVSCRNTPFYSIHQQFFKAEYSAHYKHVLMKIESLLSAEDSIIFTHPLQLEMYRLANNDIKSKAKLIVQIHGNYMEEIHNYEILARNIDYVDYLQTVSDEMLEEMHSHFKIKKDKLVFIPNITYPISLEKKEADFFIKDNEDIDNAQKFKRISIVGSIQPRKNQLDAIKIINKIKNENYILQIYGKSINKDYFELIKKYIKDNKLQNRILFKGESSEQEIYENTDILIMTSESEGFPYIFMEGMVYDIPIVVYDFKYGANDYSNYNENGCVFKTGDISGMAKKIIELLNNPEKYKELVQYNHNRFLKEYAKDVVMAKYFTILPRSFNNVSLSSAFSRKELDEFQNITFSIEDSNDLAHIWNFELTNPAQNMNFFALVGKRKFPMDAHIQGTQCTIKIAHKKTGNLLSLLLKKRNQLNLSRGYTLIAEDNSYEKYIGAISNKGNFEIIANKKSSLVTINKSTLELHEIPHELHQNKLLIALPNMQTPLKITDDNLIPIQASIKLEKIGNTYYPCFLPSGIFNNICLDYGEESKIINFSKYSYKYIYDSIRHIEQHTDISDIIVCNVYSWELIRASVIESLMEFTGKWEKHFQTSPKIDYRFDHEGKRSMDDVFSEETFIMEFPRKNGIDKKTAAFQNIPNSIVMEYPQTNGYSMRSHSLKSNVVAAKHFLEKLNKIKVDIKFKKHDLANIKKMNRIIYEHLGININIEAFLKPRLEKFKREEKYFHDFFKRNNFKEVIFPSTYWNPGIICAAHKQGIKVSDIQYAAITPYHPAYFKSPKSHYVADKLFLWSEYWNHELLPNPTREIGSGAAYWYALDDVRFSEKLNYDYIFLSQSRISSRLLSFAIEFALKNPQLQLLFSKHPDENIDLKNRIIPDNLIISTESSIQGINESRVAVGVYSTSLFEALACGKQTFVVKYPGYEIMSNEIDSGLFFAVETPEEMLEKTSPNWVAVADIENQFFGQEK
# How the values were obtained:
# [1] = tested on: α2-6-sialyltransferase activity of NmSiaDW; format: biochemical, Neisseria meningitidis
# [2] = molecular target: NmSiaDW α2-6-sialyltransferase activity (Neisseria meningitidis, UniProt O33390); experiment: Enzyme kinetics by varying CMP-Neu5Ac concentrations, fixed acceptor G2 or G10; format: biochemical; conditions: apparent, fixed acceptor 1 mM (row names the acceptor)
# Experimental: Enzyme kinetics by varying donor concentrations. For varying UDP-Gal concentrations, reactions were performed in duplicate at 30° C. for 10 minutes in the presence of MES buffer (100 mM, pH 6.5), MgCl2 (10 mM), S3 or S9 (2 mM), UDP-Gal (0.1, 0.2, 0.5, 1.0, 2.0, 5.0 and 10.0 mM), and NmSiaDW (0.025 μM for S3, 0.031 μM for S9) in a total volume of 20 μL. For varying CMP-Neu5Ac concentrations, reactions were performed in duplicate at 30° C. for 10 minutes in the presence of Tris-HCl buffer (100 mM, pH 8.0), MgCl2 (10 mM), G2 or G10 (1 mM), CMP-Neu5Ac (0.2, 0.5, 1.0, 2.0, 5.0 and 10.0 mM), and NmSiaDW (0.025 μM for G2, 0.062 μM for G10) in a total volume of 20 μL. Data analyses were carried out as described above.
# NmSiaDW kinetics studies where the concentrations of the donors were also conducted, using a fixed concentration of a representative short or long acceptor substrate. S3 or S9 was used as the acceptor substrate for varying the concentration of UDP-Gal and G2 or G10 was used as the acceptor substrate for varying the concentration of CMP-Neu5Ac. […] The averages of nonlinear regression standard errors from technical duplicates are shown.
# [3] = molecular target: NmSiaDW α1-4-galactosyltransferase activity (Neisseria meningitidis, UniProt O33390); format: biochemical; conditions: apparent; varying UDP-Gal, fixed acceptor 2 mM (row names the acceptor)
# [4] = molecular target: NmSiaDW sialyltransferase activity (Neisseria meningitidis, UniProt O33390); conditions: apparent; varying acceptor, 10 mM CMP-Neu5Ac, pH 8.0, 30° C.
# [5] = molecular target: NmSiaDW galactosyltransferase activity (Neisseria meningitidis, UniProt O33390); conditions: for increase of overall catalytic efficiency (kcat/KM) relative to monosaccharide S1: monosaccharide to nonasaccharide
# NmSiaDW [6] = experiment: Thermostability of NmSiaDW (pre-heated 30 min, then activity assay at 30° C.); format: biochemical, Neisseria meningitidis
# Experimental: Enzyme was pre-heated at a given temperature for 30 min, then put on ice for 10 min. Reactions were performed at 30° C. and activity assays were then carried out as described above for the temperature profile assays.
# NmSiaDW [7] = experiment: Temperature profile of NmSiaDW activities; format: biochemical, Neisseria meningitidis
# Experimental: Assays were carried out in duplicate at different temperatures for 20 min in a total volume of 10 μL in a buffer (MES, 100 mM, pH 6.5 for GalT and Tris-HCl, 100 mM, pH 8.0 for SiaT assays) containing a donor substrate (1.2 mM) (UDP-Gal for GalT and CMP-Neu5Ac for SiaT assays), an acceptor substrate (1 mM) (S1 for GalT and G2 for SiaT assays), MgCl2 (10 mM), and NmSiaDW (19.8 μg for GalT and 0.17 μg for SiaT assays). Reactions were quenched by adding 10 μL of pre-chilled ethanol to the reaction mixture followed by incubation at −20° C. for 30 min. Products were assayed as described above for pH profile studies.
# [8] = apparent, varying acceptor, 2 mM UDP-Gal, pH 6.5, 30° C.
# [9] = α1-4-galactosyltransferase activity
molecule,measurement,setting,value
OC[C@H]1O[C@@H](O[C@H]2[C@H](O)[C@@H](O)C(O)O[C@@H]2CO)[C@H](O)[C@@H](O)[C@H]1O (some centres unmarked) [Galβ1-4Glc],Product,[1],√
"CC(=O)N[C@H]1[C@H]([C@H](O)[C@H](O)CO)O[C@@](OCCCNC(=O)OCc2ccccc2)(C(=O)O)C[C@@H]1O[C@H]1O[C@H](CO)[C@H](O)[C@H](O)[C@H]1O [G2, Galα1-4Neu5AcαProNHCbz]",kcat,[2],7.1 ± 0.2 s⁻¹
"CC(=O)N[C@H]1[C@H]([C@H](O)[C@H](O)CO)O[C@@](OCCCNC(=O)OCc2ccccc2)(C(=O)O)C[C@@H]1O[C@H]1O[C@H](CO[C@]2(C(=O)O)C[C@H](O)[C@@H](NC(C)=O)[C@H]([C@H](O)[C@H](O)CO)O2)[C@H](O)[C@H](O)[C@H]1O [S3, Neu5Acα2-6Galα1-4Neu5AcαProNHCbz]",kcat,[3],6.3 ± 0.2 s⁻¹
"CC(=O)N[C@H]1[C@H]([C@H](O)[C@H](O)CO)O[C@@](OC[C@H]2O[C@H](O[C@H]3C[C@](OC[C@H]4O[C@H](O[C@H]5C[C@](OC[C@H]6O[C@H](O[C@H]7C[C@](OC[C@H]8O[C@H](O[C@H]9C[C@](OCCCNC(=O)OCc%10ccccc%10)(C(=O)O)O[C@@H]([C@H](O)[C@H](O)CO)[C@@H]9NC(C)=O)[C@H](O)[C@@H](O)[C@H]8O)(C(=O)O)O[C@@H]([C@H](O)[C@H](O)CO)[C@@H]7NC(C)=O)[C@H](O)[C@@H](O)[C@H]6O)(C(=O)O)O[C@@H]([C@H](O)[C@H](O)CO)[C@@H]5NC(C)=O)[C@H](O)[C@@H](O)[C@H]4O)(C(=O)O)O[C@@H]([C@H](O)[C@H](O)CO)[C@@H]3NC(C)=O)[C@H](O)[C@@H](O)[C@H]2O)(C(=O)O)C[C@@H]1O[C@H]1O[C@H](CO)[C@H](O)[C@H](O)[C@H]1O [G10, Galα1(-4Neu5Acα2-6Galα1)4-4Neu5AcαProNHCbz]",kcat,[4],7.03 ± 0.39 s⁻¹
same,kcat,[2],6.1 ± 0.2 s⁻¹
"CC(=O)N[C@H]1[C@H]([C@H](O)[C@H](O)CO)O[C@@](OCCCNC(=O)OCc2ccccc2)(C(=O)O)C[C@@H]1O[C@H]1O[C@H](CO[C@]2(C(=O)O)C[C@H](O[C@H]3O[C@H](CO[C@]4(C(=O)O)C[C@H](O[C@H]5O[C@H](CO[C@]6(C(=O)O)C[C@H](O[C@H]7O[C@H](CO[C@]8(C(=O)O)C[C@H](O)[C@@H](NC(C)=O)[C@H]([C@H](O)[C@H](O)CO)O8)[C@H](O)[C@H](O)[C@H]7O)[C@@H](NC(C)=O)[C@H]([C@H](O)[C@H](O)CO)O6)[C@H](O)[C@H](O)[C@H]5O)[C@@H](NC(C)=O)[C@H]([C@H](O)[C@H](O)CO)O4)[C@H](O)[C@H](O)[C@H]3O)[C@@H](NC(C)=O)[C@H]([C@H](O)[C@H](O)CO)O2)[C@H](O)[C@H](O)[C@H]1O [S9, Neu5Acα2(-6Galα1-4Neu5Acα2)4-ProNHCbz]",Km,[5]; [8],< 50 µM
same,kcat,[5]; [8],5.1 ± 0.3 s⁻¹
same,acceptor concentration above which substrate inhibition was observed,"[5]; galactosyltransferase activity, 2 mM UDP-Gal",higher than 2 mM
same,increase of overall catalytic efficiency (kcat/KM) relative to monosaccharide S1,[5]; galactosyltransferase activity,more than 2100 fold
same,increase of overall catalytic efficiency (kcat/KM) relative to monosaccharide S1,"[5]; galactosyltransferase activity, listed as nonasaccharide",More than 2300 fold
same,kcat,[3],9.0 ± 0.2 s⁻¹
CO[C@H]1O[C@H](CO)[C@H](O)[C@H](O)[C@H]1O [GalαOMe],Product,[1],Not Detected
B1,incubation temperature at which both glycosyltransferase activities were lost (30 minutes),NmSiaDW [6]; both activities,44 °C
same,temperature up to which activity is retained after 30 minutes incubation,NmSiaDW [6]; [9],up to 33 °C
same,incubation temperature above which activity decreased significantly (30 minutes),NmSiaDW [6]; α2-6-sialyltransferase activity,higher than 30 °C
same,optimal temperature,NmSiaDW [7]; sialyltransferase activity,30-37 °C
same,optimal temperature,NmSiaDW [7]; [9],20-33 °C
